Assay results published in ChEMBL document CHEMBL3885881, “DrugMatrix”.

Organism: Rattus norvegicus
Experiment: DrugMatrix - Regimen: Daily Repeat
Format: toxicity, organism-based, Sprague-Dawley
Parameters: regimen Daily Repeat, gender Male, age 6-8 weeks
Conditions: in vivo, po, route oral GAVAGE, vehicle .5 % CMC; for ABSOLUTE BASOPHIL / ABSOLUTE EOSINOPHIL / ABSOLUTE LYMPHOCYTE / ABSOLUTE MONOCYTE / ABSOLUTE SEGMENTED NEUTROPHIL / BASOPHIL / EOSINOPHIL / ERYTHROCYTE COUNT / HEMATOCRIT / HEMOGLOBIN / LEUKOCYTE COUNT / LYMPHOCYTE / MEAN CORPUSCULAR HEMOGLOBIN / MEAN CORPUSCULAR HEMOGLOBIN CONCENTRATION / MONOCYTE / NEUTROPHIL / NUCLEATED RED BLOOD CELLS / PLATELET COUNT: tissue Blood; for ALANINE AMINOTRANSFERASE / ALBUMIN / ALKALINE PHOSPHATASE / ASPARTATE AMINOTRANSFERASE / BLOOD UREA NITROGEN / CARBON DIOXIDE / CHLORIDE / CHOLESTEROL / CREATINE PHOSPHOKINASE / CREATININE / GLUCOSE / LACTATE DEHYDROGENASE / LIPASE / PHOSPHORUS / POTASSIUM / SODIUM / TOTAL BILIRUBIN / TOTAL PROTEIN / URIC ACID: tissue Plasma
[1] = 0 mg/kg, 72 h, dose level Control, time 3 day
[2] = 0 mg/kg, 120 h, dose level Control, time 5 day
[3] = 1100 mg/kg, 72 h, dose level High, time 3 day
[4] = 1100 mg/kg, 120 h, dose level High, time 5 day

C[C@H]1[C@H](NC(=O)/C(=N\OC(C)(C)C(=O)O)c2csc(N)n2)C(=O)N1S(=O)(=O)O [AZTREONAM]
ABSOLUTE BASOPHIL [1]: 0 CELLS/uL | ABSOLUTE EOSINOPHIL [1]: 222.83 CELLS/uL | ABSOLUTE LYMPHOCYTE [1]: 14453 CELLS/uL | ABSOLUTE MONOCYTE [1]: 0 CELLS/uL | ABSOLUTE SEGMENTED NEUTROPHIL [1]: 1490.83 CELLS/uL | BASOPHIL [1]: 0% | EOSINOPHIL [1]: 1.33% | ERYTHROCYTE COUNT [1]: 5.76 x10E6/uL | HEMATOCRIT [1]: 36.52% | HEMOGLOBIN [1]: 13.45 G/DL | LEUKOCYTE COUNT [1]: 16.17 x10E3/uL | LYMPHOCYTE [1]: 89.33% | MEAN CORPUSCULAR HEMOGLOBIN [1]: 23.37 pg | MEAN CORPUSCULAR HEMOGLOBIN CONCENTRATION [1]: 36.85 G/DL | MONOCYTE [1]: 0% | NEUTROPHIL [1]: 9.33% | NUCLEATED RED BLOOD CELLS [1]: 0 /100WBC | PLATELET COUNT [1]: 1239.5 x10E3/uL | ALANINE AMINOTRANSFERASE [1]: 43.83 u/L | ALBUMIN [1]: 4.27 G/DL | ALKALINE PHOSPHATASE [1]: 398.83 u/L | ASPARTATE AMINOTRANSFERASE [1]: 81.17 u/L | BLOOD UREA NITROGEN [1]: 17.67 mg/dL | CARBON DIOXIDE [1]: 27.5 mmol/L | CHLORIDE [1]: 99.17 MEQ/L | CHOLESTEROL [1]: 74 mg/dL | CREATINE PHOSPHOKINASE [1]: 331.5 u/L | CREATININE [1]: 0.2 mg/dL | GLUCOSE [1]: 171.33 mg/dL | LACTATE DEHYDROGENASE [1]: 241.67 u/L | LIPASE [1]: 9.5 u/L | PHOSPHORUS [1]: 12.25 mg/dL | POTASSIUM [1]: 6.33 MEQ/L | SODIUM [1]: 141.28 MEQ/L | TOTAL BILIRUBIN [1]: 0.15 mg/dL | TOTAL PROTEIN [1]: 5.98 G/DL | URIC ACID [1]: 1.63 mg/dL | ABSOLUTE BASOPHIL [2]: 0 CELLS/uL | ABSOLUTE EOSINOPHIL [2]: 148.67 CELLS/uL | ABSOLUTE LYMPHOCYTE [2]: 16020.5 CELLS/uL | ABSOLUTE MONOCYTE [2]: 29.17 CELLS/uL | ABSOLUTE SEGMENTED NEUTROPHIL [2]: 1468.33 CELLS/uL | BASOPHIL [2]: 0% | EOSINOPHIL [2]: 1% | ERYTHROCYTE COUNT [2]: 5.78 x10E6/uL | HEMATOCRIT [2]: 35.77% | HEMOGLOBIN [2]: 13.4 G/DL | LEUKOCYTE COUNT [2]: 17.67 x10E3/uL | LYMPHOCYTE [2]: 90.5% | MEAN CORPUSCULAR HEMOGLOBIN [2]: 23.22 pg | MEAN CORPUSCULAR HEMOGLOBIN CONCENTRATION [2]: 37.47 G/DL | MONOCYTE [2]: 0.17% | NEUTROPHIL [2]: 8.33% | NUCLEATED RED BLOOD CELLS [2]: 0.17 /100WBC | PLATELET COUNT [2]: 1255.5 x10E3/uL | ALANINE AMINOTRANSFERASE [2]: 46.5 u/L | ALBUMIN [2]: 4.38 G/DL | ALKALINE PHOSPHATASE [2]: 336 u/L | ASPARTATE AMINOTRANSFERASE [2]: 76.5 u/L | BLOOD UREA NITROGEN [2]: 20 mg/dL | CARBON DIOXIDE [2]: 27.5 mmol/L | CHLORIDE [2]: 101 MEQ/L | CHOLESTEROL [2]: 71.33 mg/dL | CREATINE PHOSPHOKINASE [2]: 231.83 u/L | CREATININE [2]: 0.37 mg/dL | GLUCOSE [2]: 168.83 mg/dL | LACTATE DEHYDROGENASE [2]: 174 u/L | LIPASE [2]: 8.67 u/L | PHOSPHORUS [2]: 11.48 mg/dL | POTASSIUM [2]: 6.82 MEQ/L | SODIUM [2]: 143.8 MEQ/L | TOTAL BILIRUBIN [2]: 0.2 mg/dL | TOTAL PROTEIN [2]: 5.98 G/DL | URIC ACID [2]: 1.83 mg/dL | ABSOLUTE BASOPHIL [3]: 0 CELLS/uL | ABSOLUTE EOSINOPHIL [3]: 113.67 CELLS/uL | ABSOLUTE LYMPHOCYTE [3]: 10636 CELLS/uL | ABSOLUTE MONOCYTE [3]: 74.67 CELLS/uL | ABSOLUTE SEGMENTED NEUTROPHIL [3]: 842.33 CELLS/uL | BASOPHIL [3]: 0% | EOSINOPHIL [3]: 1% | ERYTHROCYTE COUNT [3]: 5.33 x10E6/uL | HEMATOCRIT [3]: 34.77% | HEMOGLOBIN [3]: 12.97 G/DL | LEUKOCYTE COUNT [3]: 11.67 x10E3/uL | LYMPHOCYTE [3]: 91% | MEAN CORPUSCULAR HEMOGLOBIN [3]: 24.4 pg | MEAN CORPUSCULAR HEMOGLOBIN CONCENTRATION [3]: 37.3 G/DL | MONOCYTE [3]: 0.67% | NEUTROPHIL [3]: 7.33% | NUCLEATED RED BLOOD CELLS [3]: 0 /100WBC | PLATELET COUNT [3]: 1394 x10E3/uL | ALANINE AMINOTRANSFERASE [3]: 52 u/L | ALBUMIN [3]: 4.03 G/DL | ALKALINE PHOSPHATASE [3]: 364.67 u/L | ASPARTATE AMINOTRANSFERASE [3]: 79 u/L | BLOOD UREA NITROGEN [3]: 16.33 mg/dL | CARBON DIOXIDE [3]: 27 mmol/L | CHLORIDE [3]: 100.33 MEQ/L | CHOLESTEROL [3]: 72 mg/dL | CREATINE PHOSPHOKINASE [3]: 274.33 u/L | CREATININE [3]: 0.18 mg/dL | GLUCOSE [3]: 167.67 mg/dL | LACTATE DEHYDROGENASE [3]: 74.33 u/L | LIPASE [3]: 8.67 u/L | PHOSPHORUS [3]: 11.13 mg/dL | POTASSIUM [3]: 5.8 MEQ/L | SODIUM [3]: 142.4 MEQ/L | TOTAL BILIRUBIN [3]: 0.17 mg/dL | TOTAL PROTEIN [3]: 5.53 G/DL | URIC ACID [3]: 1.6 mg/dL | ABSOLUTE BASOPHIL [4]: 0 CELLS/uL | ABSOLUTE EOSINOPHIL [4]: 309 CELLS/uL | ABSOLUTE LYMPHOCYTE [4]: 13777 CELLS/uL | ABSOLUTE MONOCYTE [4]: 0 CELLS/uL | ABSOLUTE SEGMENTED NEUTROPHIL [4]: 1914 CELLS/uL | BASOPHIL [4]: 0% | EOSINOPHIL [4]: 1.67% | ERYTHROCYTE COUNT [4]: 5.78 x10E6/uL | HEMATOCRIT [4]: 35.83% | HEMOGLOBIN [4]: 13.5 G/DL | LEUKOCYTE COUNT [4]: 16 x10E3/uL | LYMPHOCYTE [4]: 87% | MEAN CORPUSCULAR HEMOGLOBIN [4]: 23.37 pg | MEAN CORPUSCULAR HEMOGLOBIN CONCENTRATION [4]: 37.7 G/DL | MONOCYTE [4]: 0% | NEUTROPHIL [4]: 11.33% | NUCLEATED RED BLOOD CELLS [4]: 0.33 /100WBC | PLATELET COUNT [4]: 1184.33 x10E3/uL | ALANINE AMINOTRANSFERASE [4]: 47.67 u/L | ALBUMIN [4]: 4.5 G/DL | ALKALINE PHOSPHATASE [4]: 346 u/L | ASPARTATE AMINOTRANSFERASE [4]: 72 u/L | BLOOD UREA NITROGEN [4]: 16 mg/dL | CARBON DIOXIDE [4]: 27 mmol/L | CHLORIDE [4]: 102.33 MEQ/L | CHOLESTEROL [4]: 65 mg/dL | CREATINE PHOSPHOKINASE [4]: 183.33 u/L | CREATININE [4]: 0.2 mg/dL | GLUCOSE [4]: 176.67 mg/dL | LACTATE DEHYDROGENASE [4]: 90 u/L | LIPASE [4]: 9.33 u/L | PHOSPHORUS [4]: 11.4 mg/dL | POTASSIUM [4]: 6.11 MEQ/L | SODIUM [4]: 146.47 MEQ/L | TOTAL BILIRUBIN [4]: 0.13 mg/dL | TOTAL PROTEIN [4]: 6 G/DL | URIC ACID [4]: 1.7 mg/dL
